Test results from US10800807B2, “TGR5 modulators and methods of use thereof” (Intercept Pharmaceuticals, Inc., priority 2015, dated 2020).
Numbering of substitutions follows the chain as printed. Values after ≈ are worked out from the molar mass of the structure shown. Read-outs that look alike come from different tables or passages of the source.

Assays:
[1] = Critical micellar concentration (surface tension / dye solubilization); type: physicochemical
bovine serum albumin = bovine serum albumin (Bos taurus, UniProt P02769); test: Albumin binding by equilibrium dialysis; type: in vitro ADME; settings: 5% bovine serum albumin saline solution, 25° C.
Chain of bovine serum albumin (P02769 25-607): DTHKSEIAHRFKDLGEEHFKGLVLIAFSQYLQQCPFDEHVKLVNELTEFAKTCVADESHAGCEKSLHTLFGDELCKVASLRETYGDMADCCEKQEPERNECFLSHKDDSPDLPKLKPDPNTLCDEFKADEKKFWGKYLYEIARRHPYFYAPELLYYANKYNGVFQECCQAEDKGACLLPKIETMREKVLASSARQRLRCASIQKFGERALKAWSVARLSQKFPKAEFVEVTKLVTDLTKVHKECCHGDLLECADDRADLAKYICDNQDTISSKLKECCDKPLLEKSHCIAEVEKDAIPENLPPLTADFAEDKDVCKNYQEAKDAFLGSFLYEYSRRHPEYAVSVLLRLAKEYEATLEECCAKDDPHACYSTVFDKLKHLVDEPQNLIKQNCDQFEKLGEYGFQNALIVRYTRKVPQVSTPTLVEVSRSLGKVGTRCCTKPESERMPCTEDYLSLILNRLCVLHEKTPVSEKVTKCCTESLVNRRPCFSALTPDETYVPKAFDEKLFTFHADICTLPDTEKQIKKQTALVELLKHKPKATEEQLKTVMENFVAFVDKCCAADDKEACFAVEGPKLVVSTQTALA
Experimental: BA was dissolved at a concentration of […] in 5% bovine serum albumin saline solution and left to stand for 24 hours at 25° C. Two milliliters of this solution was dialyzed in cellulose sacs with a molecular weight cut-off of 12-14 kDa (Spectra/Por; Spectrum Medical Industries Inc., Rancho Dominguez, Calif.) against 25 ml of saline solution. The system was equilibrated by mechanical shaking for 72 hours at 25° C. BA concentrations in the starting solution and in the dialyzed solution were determined by HPLC-ES-MS/MS as reported below.

[2] = Critical micellar concentration (surface tension / dye solubilization); type: physicochemical; settings: for CMC: BA sodium salts in 0.1 M NaCl, 25° C.; for STCMC: surface tension at CMC
Experimental: In the first method, the surface tension was performed by maximum bubble-pressure method using a Sensadyne 6000 tensiometer (Chem-Dyne Research Corp., Milwaukee, Wis.). The surface tension of aqueous solutions at various concentrations (range 0.1-100 mM) of the BA sodium salts in 0.1 M NaCl was measured at 25° C. The surface tension values were plotted against the logarithm of the bile salt concentration; the regression lines corresponding to the two parts of the curve (monomeric and micellar phases) were calculated using the method of least squares. The critical micellar concentration (CMC) value (mM) was obtained by the intersection of the two lines.
The second method is based on the fact that some dyes, specifically Orange OT ([…]), are almost insoluble in water but dissolve in solutions with micellar aggregates that incorporate them; thus, the intensity of color of the solution increases with bile salt concentration (after CMC achievement). The amount of dye solubilized in relation to bile salt concentration was determined spectrophotometrically.
For each bile acid, various solution at different concentrations, between 50 mM and 0.1 mM with appropriate dilutions, were incubated under stirring at room temperature for 3 days with an excess of Orange OT. Then all the solutions were centrifuged and filtered through a 0.22 μm Millipore fiiter (Millipore Corp., Bedford, Mass.).

[3] = Lipophilicity, 1-octanol/water partition coefficient (shake-flask); type: physicochemical; settings: pH 8.00, ionized BA
Experimental: The experiments were carried out on 1 mM initial bile salt solution buffered at pH 8.00 with 0.1 M potassium phosphate buffer to ensure complete ionization of the BA. BA concentration in the water phase before and after partition in 1-octanol was measured by HPLC-ESMS/MS as reported below.

Water solubility = type: physicochemical; settings: 0.1 M HCl, pH 1.00, 25° C.; for solubility thermodynamic at 1 week: read-out: Ws; for Ws: 1 week
Experimental: BA were suspended in 100 ml of 0.1 M HCl, pH 1.00, and the saturated solutions were transferred to a thermostat-equipped water bath maintained at 25° C. After incubation for 1 week, the solutions were filtered on a Millipore filter ([…]), and the concentration of BA was measured by HPLC-ESMS/MS as reported below.

TGR5 [4] = biological target: T1, TGR5 (Homo sapiens, UniProt Q8TDU6); test: TGR5 activity: intracellular cAMP levels, NCI-H716 cells (HTR-FRET); type: cell-based; parameters: endogenous in cells; host or cells: NCI-H716; settings: NCI-H716 cells; for Emax: 1 h, Ref. LCA 100% at 10 μM, read-out: TGR5 (NCI-H716) Efficacy; for EC50: cAMP
T1 sequence (Q8TDU6 1-330): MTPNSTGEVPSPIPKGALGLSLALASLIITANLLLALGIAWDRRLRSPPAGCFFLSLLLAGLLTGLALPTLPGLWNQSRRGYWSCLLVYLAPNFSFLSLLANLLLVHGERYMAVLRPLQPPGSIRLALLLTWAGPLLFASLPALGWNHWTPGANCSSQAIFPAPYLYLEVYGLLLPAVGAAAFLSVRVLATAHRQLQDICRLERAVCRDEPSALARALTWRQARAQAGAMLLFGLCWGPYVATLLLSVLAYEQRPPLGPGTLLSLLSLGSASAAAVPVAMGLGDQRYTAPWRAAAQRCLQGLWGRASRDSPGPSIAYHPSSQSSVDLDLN
Experimental: Activation of TGR5 was assessed by measuring the level of cAMP using an HTR-FRET assay. Thus, NCI-H716 cells were cultured on 96-well plates coated with Matrigel (Corning, USA) (0.75 mg/ml) in DMEM supplemented with 10% FCS, 100 units/ml penicillin, and 100 μg/ml streptomycin sulphate. […] The level of intracellular cAMP was determined with Lance kit. Z′ factor was used to validate assays.

[5] = biological target: T2, human glutathione transferase-tagged FXR-LBD (Homo sapiens, UniProt Q96RI1); test: FXR AlphaScreen coactivator recruitment assay (human); type: biochemical; parameters: Emax: dose or concentration left out as unconfirmed; settings: for EC50: human FXR-LBD, AlphaScreen, read-out: hFXR EC50; for Emax: read-out: hFXR Efficacy;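 for hFXR Efficacy: CDCA at 50 µM taken as 100%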
T2 construct: human glutathione transferase-tagged FXR-LBD (Life Technologies, USA); purchased Life Technologies, USA
T2 sequence (Q96RI1 262-486 limits assumed): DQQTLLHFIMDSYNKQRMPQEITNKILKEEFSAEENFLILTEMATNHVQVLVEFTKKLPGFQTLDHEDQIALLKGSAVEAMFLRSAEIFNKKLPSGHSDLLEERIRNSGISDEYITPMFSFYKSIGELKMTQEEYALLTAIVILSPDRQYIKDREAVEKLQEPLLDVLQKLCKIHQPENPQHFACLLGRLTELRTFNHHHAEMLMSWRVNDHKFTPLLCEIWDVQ
Experimental: (§1) Activation of the FXR receptor was determined using a recruitment coactivator assay, namely AlphaScreen technology. The assays were performed using human glutathione transferase-tagged FXR-LBD (Life Technologies, USA) and mouse glutathione transferase-tagged FXR-LBD (generated in-house). Briefly, assays were conducted in white, low-volume, 384-well OptiPlate using a final volume of 25 μL containing 10 nM glutathione transferase-tagged FXR-LBD protein and 30 nM biotinylated Src-1 peptide. The stimulation was carried out with different BA concentrations for 30 minutes at 25° C. […] Dose-response curves were performed in triplicate and Z′ factor was used to validate the robustness of the assay.

[6] = biological target: T3, mouse glutathione transferase-tagged FXR-LBD (Mus musculus, UniProt Q60641); test: FXR AlphaScreen coactivator recruitment assay (mouse); type: biochemical; settings: mouse FXR-LBD, value in parentheses; for EC50: read-out: (mFXR) EC50; for Emax: read-out: (mFXR) Efficacy
T3 construct: mouse glutathione transferase-tagged FXR-LBD (generated in-house); made in house
T3 sequence (Q60641 264-488 limits assumed): T2 sequence (Q96RI1 262-486 limits assumed) with H7D, F8Y, N46S, V50I, S95A, S98A, N107K, I125V, I174M, H175Y
Experimental: as §1

TGR5 [7] = biological target: T1, TGR5; test: TGR5 activity: cAMP in hTGR5 CHO-k1 cells; type: cell-based; parameters: expressed in transfected cells; host or cells: CHO-k1; settings: hTGR5 CHO cells; for Emax: 0.5 h, Ref. LCA 100% at 10 μM, read-out: hTGR5 CHO Efficacy; for EC50: cAMP
mTGR5 = biological target: T4, mTGR5 (Mus musculus, UniProt Q80SS6); test: TGR5 activity: cAMP in mTGR5 CHO-Pi10 clone 4 cells; type: cell-based; settings: mTGR5 CHO cells, value in parentheses; for Emax: 0.5 h, read-out: (mTGR5 CHO) Efficacy
T4 construct: expressed in transfected cells; host or cells: CHO-Pi10 clone 4
T4 sequence (Q80SS6 1-329): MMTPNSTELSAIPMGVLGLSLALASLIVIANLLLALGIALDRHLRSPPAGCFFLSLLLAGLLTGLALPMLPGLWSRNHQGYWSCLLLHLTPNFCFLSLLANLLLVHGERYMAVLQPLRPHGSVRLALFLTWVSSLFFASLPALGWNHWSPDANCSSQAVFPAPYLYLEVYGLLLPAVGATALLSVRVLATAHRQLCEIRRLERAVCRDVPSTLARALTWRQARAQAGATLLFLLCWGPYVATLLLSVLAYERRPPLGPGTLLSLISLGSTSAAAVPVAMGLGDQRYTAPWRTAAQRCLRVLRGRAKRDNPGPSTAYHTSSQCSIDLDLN

[8] = simulated gastric fluid, thermodynamic from solid

Row | SMILES | CMpH [1] | Albumin binding (%) (bovine serum albumin) | CMC [2] | STCMC [2] | LogPA− [3] | solubility thermodynamic at 1 week (Water solubility) | Ws (Water solubility) | pKa (pKa) | solubility thermodynamic at 1 week (Water solubility; [8]) | Emax (TGR5 [4]) | EC50 (TGR5 [4]) | EC50 [5] | Emax [5] | EC50 [6] | Emax [6] | Emax (TGR5 [7]) | EC50 (TGR5 [7]) | Emax (mTGR5) | EC50 (mTGR5)
1 | CC[C@H]1[C@@H](O)C2C3CC[C@H]([C@H](C)CC(F)(F)C(=O)O)[C@@]3(C)[C@@H](O)CC2[C@@]2(C)CC[C@@H](O)C[C@@H]12 (stereo partly drawn) [Compound 3, 3α,7α,12α-Trihydroxy-6α-ethyl-23,23-gemdifluoro-5β-cholan-24-oic acid] | 2.7 |  | 10 mM |  | 1.0 |  |  | 1.1 | 225 µM (≈ 106 µg/mL) |  |  |  |  |  |  |  |  |  | 
2 | CC[C@H]1[C@@H](O)C2C3CC[C@H]([C@H](C)CCc4nn[nH]n4)[C@@]3(C)CCC2[C@@]2(C)CC[C@@H](O)C[C@@H]12 (stereo partly drawn) [Compound 15, 3α,7α-Dihydroxy-6α-ethyl-23-(tetrazol-5-yl)-6α-ethyl-24-nor-5β-cholane] |  | 76% |  |  | 1.2 |  |  | 5.59 | 132 µM (≈ 58.7 µg/mL) | 97 ± 7.6% | 5000 ± 1000 nM | 150 ± 50 nM | 173 ± 22% | 6000 nM | 222% | 99 ± 3% | 720 ± 50 nM | 102% | 440 nM
3 | CC[C@H]1[C@@H](O)C2C3CC[C@H]([C@H](C)CC(=O)NCCOS(=O)(=O)[O-])[C@@]3(C)CCC2[C@@]2(C)CC[C@@H](O)C[C@@H]12.[Na+] (stereo partly drawn) [Compound 21, Sodium 2-(3α,7α-dihydroxy-6α-ethyl-24-nor 5β-cholan-23-amido)-ethyl sulfate] |  | 86% | 4 mM |  | 0.9 |  |  | < 1 | 1810 µM | 127 ± 1% | 190 ± 50 nM | 1500 ± 500 nM | 136 ± 7% | 5400 nM | 136% | 105 ± 2% | 20 ± 10 nM | 107% | 70 nM
4 | CC[C@H]1[C@@H](O)C2C3CC[C@H]([C@H](C)C[C@H](C)C(=O)O)[C@@]3(C)[C@@H](O)CC2[C@@]2(C)CC[C@@H](O)C[C@@H]12 (some centres unmarked) [Ref. Cmpd. A, reference compound] | 6.1 | 62% | 2 mM | 50.1 Dyne/cm | 1.4 |  |  | 5 |  |  |  |  |  |  |  |  |  |  | 

More lines, main results first:

Row | CMpH [1] | Albumin binding (%) (bovine serum albumin) | CMC [2] | STCMC [2] | LogPA− [3] | solubility thermodynamic at 1 week (Water solubility) | Ws (Water solubility) | SMILES | pKa (pKa) | solubility thermodynamic at 1 week (Water solubility; [8]) | Emax (TGR5 [4]) | EC50 (TGR5 [4]) | EC50 [5] | Emax [5] | EC50 [6] | Emax [6] | Emax (TGR5 [7]) | EC50 (TGR5 [7]) | Emax (mTGR5) | EC50 (mTGR5)
5 | 7 | 96% | 3.2 mM | 45.5 Dyne/cm | 2.2 |  |  | C[C@H](CCC(=O)O)[C@H]1CC[C@H]2[C@@H]3[C@H](O)C[C@@H]4C[C@H](O)CC[C@]4(C)[C@H]3CC[C@]12C [CDCA, chenodeoxycholic acid, reference compound] | 5 |  |  |  |  |  |  |  |  |  |  | 
6 | 6.3 | 65% | 8 mM | 48.8 Dyne/cm | −0.4 | 32 µM (≈ 14.9 µg/mL) |  | C[C@H](CCC(=O)NCC(=O)O)[C@H]1CC[C@H]2[C@@H]3[C@H](O)C[C@@H]4C[C@H](O)CC[C@]4(C)[C@H]3C[C@H](O)[C@]12C [GCA, reference compound] | 3.9 |  |  |  |  |  |  |  |  |  |  | 
7 |  | 42% | 4 mM | 51 Dyne/cm | −0.5 |  | hs | C[C@H](CCC(=O)NCCS(=O)(=O)O)[C@H]1CC[C@H]2[C@@H]3[C@H](O)C[C@@H]4C[C@H](O)CC[C@]4(C)[C@H]3C[C@H](O)[C@]12C [TCA, reference compound] | <1 ^ |  |  |  |  |  |  |  |  |  |  | 
8 |  | 70% | 3 mM | 47.1 Dyne/cm | 0.9 |  | hs | C[C@H](CCC(=O)NCCS(=O)(=O)O)[C@H]1CC[C@H]2[C@@H]3[C@H](O)C[C@@H]4C[C@H](O)CC[C@]4(C)[C@H]3CC[C@]12C [TCDCA, reference compound] | <1 ^ |  |  |  |  |  |  |  |  |  |  | 
9 | 8.2 | 94% | 10 mM | 50.5 Dyne/cm | 2.2 |  |  | C[C@H](CCC(=O)O)[C@H]1CC[C@H]2[C@@H]3[C@@H](O)C[C@@H]4C[C@H](O)CC[C@]4(C)[C@H]3CC[C@]12C [UDCA, ursodeoxycholic acid, reference compound] |  | 7 µM (≈ 2.75 µg/mL) |  |  |  |  |  |  |  |  |  | 
